Where two headings read alike, the source gives them in different places.
Key:
ENaC-α = ENaC-α expression (real-time PCR, western blot) in rat RMG primary cultures and retinal explants; assay type: cell-based; details: for aldosterone-induced increase in ENaC-α subunit transcripts in presence of antagonist: 10 nM aldosterone plus 1 µM antagonist, 24 hrs
Method: (§1) Rat RMG cells were obtained as described (deKozak, Y., Naud, M. C., Bellot, J., Faure, J. P., and Hicks, D. (1994) Differential tumor necrosis factor expression by resident retinal cells from experimental uveitis-susceptible and -resistant rat strains. J Neuroimmunol 55, 1-9). Briefly, rats at postnatal (PN) day 17 (when RMG cells are mature) were sacrificed and eyes enucleated. Intact eyeballs were maintained in DMEM overnight at room temperature in the dark, and then incubated 45 min with 2 mg/ml trypsin/collagenase I at 37° C. The neural retinas were separated from the lens and vitreous, cut into small fragments and plated in Petri dishes containing DMEM supplemented with 10% FCS, 100 units/ml penicillin, 100 µg/ml streptomycin, and 0.2% amphotericin B. Cultures were maintained at 37° C. in a humidified atmosphere containing 5% CO2. After 5 to 6 days, the cultures were washed extensively with medium so that only a strongly adherent flat cell population remained.
(§2) Müller cells were seeded in 6-well tissue culture plates (Becton Dickinson, Le Pont de Claix, France). Rat PN17 RMG cells were maintained in their initial Petri dishes. Sub confluent (80%) cells were incubated in media supplemented with 10% steroid-free (charcoal treated) FCS for 24 hrs. Corticosteroid (Sigma-Aldrich, Saint Quentin Fallavier, France) treatments were then applied respectively for a further 24 hrs: 10 nM aldosterone, 10 nM aldosterone plus 1).IM RU38486 (GR-specific antagonist), 10 nM aldosterone plus 1 µM RU26752 (MR-specific antagonist) or 1 µM dexamethasone. The steroids were previously dissolved in 2% steroid-free FCS media containing 0.1% ethanol. Control cells were treated with 0.1% ethanol in media.
(§3) After enucleation, rat retinas were isolated immediately under aseptic conditions and cut into 4 pieces. They were then transferred onto a Cyclopore 0.2).Im polycarbonate membrane (Whatman, Maidstone, England), and flatmounted with the vitreal side up. The support membranes were placed in 6-well tissue culture plates containing 2 ml DMEM supplemented with 10% steroid-free FCS, 1% penicillin-streptomycin and 0.1% amphotericin B. Explants were treated with corticosteroids as described for cultured cells. Similarly, the dose-dependent effect of aldosterone (0.1-100 nM) was analyzed on retinal explants in separate experiments.
(§4) Total RNA was isolated from the treated RMG cells and retinal explants using RNeasy Mini Kit (Qiagen, Courtaboeuf, France). First-strand cDNA was synthesized after DNase I (Qiagen) treatment using random primers (Invitrogen) and superscript II reverse transcriptase (Invitrogen). Transcript levels of ENaC-a, Kir4.1 and AQP4 were analyzed by real-time PCR performed in 7500 Real-Time PCR System (Applied Biosystems, Foster City, Calif., USA) with either TaqMan® (Applied Biosystems) or SYBR® Green (Invitrogen, Cergy Pontoise, France) detection. The 18S was used as internal control.
(§5) Retinal explants were homogenized in Np40 buffer in the presence of protease inhibitors. The protein concentration was determined by the Bradford method. Equal amounts of protein (12 .ug) were separated on Novex® 4%-12% Tris-Glycine gel (Invitrogen), transferred to nitrocellulose, and the blots were incubated with primary antibodies at 4° C. overnight. The membranes were washed, incubated with horse radish peroxidase conjugated goat anti-rabbit IgG (1:3000, Vector, AbCys, Paris, France) for 1 hr at room temperature, and developed using ECL Plus western blotting detection reagents (GE healthcare, Orsay, France). The j3-actin was used as internal control. The following primary antibodies were used: rabbit anti-alpha ENaC (1:500, Abcam, Cambridge, Mass., USA), rabbit anti-Kir4.1 (1:400, Alomone Labs, Jerusalem, Israel), rabbit anti-AQP4 (1:750, Millipore, St Quentin en Yvelines, France) and rabbit anti-j3-actin (1:1000, Abcam)

Kir4.1 = Kir4.1 expression (real-time PCR, western blot) in rat RMG primary cultures and retinal explants; assay type: cell-based; details: for aldosterone-induced Kir4.1 up-regulation in presence of antagonist: 10 nM aldosterone plus 1 µM antagonist, 24 hrs
Method: as §1, §2, §3, §4, §5

AQP4 [1] = experiment: AQP4 expression (real-time PCR, western blot) in rat RMG primary cultures and retinal explants; assay type: cell-based; details: for aldosterone induction of AQP4 mRNA in presence of antagonist: 10 nM aldosterone plus 1 µM antagonist, 24 hrs
Method: as §1, §2, §3, §4, §5

retina [2] = experiment: Intraocular injection in Brown Norway rats (gain of function mutation in the MR gene): CSCR-like retinal pathology; assay type: in vivo; details: FIGS. 1 and 2
[3] = tested on: sub retinal and/or intra retinal fluid; experiment: Oral eplerenone in patients with CSCR or chronic diffuse epitheliopathy; assay type: in vivo, human; details: for recurrence: at 6 months
Source text: Patients with non-resolutive or chronic diffuse epitheliopathy presenting with macular fluid accumulation have been treated with oral eplerenone, a specific MR antagonist. […] On the contrary, 4 months later and at 1 week before treatment, the amount of fluid had accumulated. […] They have a long history of recurrent CSCR on both eyes. In their left eye (OS), they present a macular edema with sub retinal fluid and retinal cysts. The left eye vision is reduced to 1/10 and the edema is chronic since more than 2 years. They have been treated with eplerenone 25 mg/day for 8 days and then 50 mg/days for 3 month. […] Moreover, vision in the left eye recovered to 6/10. No recurrence was observed on none of the eyes even at 6 months.

retina [4] = experiment: Intravitreal spironolactone in GK diabetic rats: retinal histology; assay type: in vivo, Goto-Kakizaki (GK) rats
Method: Goto-Kakizaki (GK) rats have been used as model for diabetic retinopathy. GK rats (Taconic Europe, Denmark), a Wistar non-obese model of Non-Insulin Dependent type 2 Diabetes were used at different ages of hyperglycemia. Glycemia was measured using Accutrend GC and Accu-check compact equipments (Roche) and plasma glucose >250 mg/dl was considered as diabetic state. […] Controls were selected from age-matched non-diabetic rats and with plasma glucose <150 mg/dl. […] 18 months diabetic rats were treated with intravitreous injections (1 μM) at day 1,3,5 and animals were re tested for ERGs 24 hrs after each injection. 24 hrs after the third injection, animals were sacrificed and the retina were analyzed using semi-thin sections.

retina [5] = experiment: Intravitreal spironolactone in GK diabetic rats: electroretinograms (ERG); assay type: in vivo, Goto-Kakizaki (GK) rats; details: 18 months diabetic GK rats, intravitreous 1 μM at day 1,3,5; 24 hrs after last injection, FIG. 7
Method: In 18 months-old GK rats, electroretinogramms were preformed (ERG).
18 months diabetic rats were treated with intravitreous injections (1 μM) at day 1,3,5 and animals were re tested for ERGs 24 hrs after each injection.

AQP4 [6] = experiment: AQP4 mRNA expression in RMG cells (Example 2); assay type: cell-based
Source text: We have performed several experiments.

[7] = 18 months GK rats, 3 intravitreous injections 1 μM, vs vehicle, FIG. 8
[8] = GK diabetic rats, intraocular, conclusion
[9] = GK rats, 1 μM final in the vitreous, 24 hrs after injection, FIG. 6

CC#C[C@]1(O)CC[C@H]2[C@@H]3CCC4=CC(=O)CCC4=C3[C@@H](c3ccc(N(C)C)cc3)C[C@@]21C [RU38486]
aldosterone-induced increase in ENaC-α subunit transcripts in presence of antagonist (ENaC-α): inhibited
aldosterone-induced Kir4.1 up-regulation in presence of antagonist (Kir4.1): fully efficient to reduce it
aldosterone induction of AQP4 mRNA in presence of antagonist (AQP4 [1]): reduces somehow

C[C@]12C[C@H](O)[C@H]3[C@@H](CCC4=CC(=O)CC[C@@]43C)[C@@H]1CC[C@@H]2C(=O)CO [corticosterone]
retinal pathology after intraocular injection (retina [2]): develop a retinal pathology very close to CSCR

COC(=O)[C@@H]1CC2=CC(=O)CC[C@]2(C)[C@@]23O[C@@H]2C[C@@]2(C)[C@@H](CC[C@@]24CCC(=O)O4)[C@H]13 [eplerenone, Pregn-4-ene-7,21-dicarboxylic acid, 9,11-epoxy-17-hydroxy-3-oxo-,γ-lactone, methyl ester, (7α,11α,17β)]
sub retinal fluid ([3]; FIG. 3 patient, CSCR unresolved for 4 months, 25 mg/day orally for 8 days): striking reduction
recurrence ([3]; FIG. 3 patient, treatment discontinued after 4 weeks): did not show any recurrence
sub retinal fluid ([3]; FIG. 3 patient, then 50 mg/day for 8 days, after 2 weeks of treatment): almost complete resolution
sub retinal fluid ([3]; FIG. 4 patient, chronic CSCR, 25 mg/day for 8 days then 50 mg/day, 15 days after treatment): complete resolution
macular cysts ([3]; FIG. 4 patient, chronic CSCR, 15 days after treatment): total resolution
recurrence ([3]; FIG. 4 patient, both eyes): No recurrence
vision in the left eye ([3]; FIG. 4 patient, reduced to 1/10 before treatment): 6/10
kinetics of efficacy ([3]; patients, oral eplerenone): as early as the first week of use
regression of sub retinal and/or intra retinal fluid ([3]; patients, oral eplerenone, FIGS. 3 and 4): very rapid and efficient regression

CC(=O)S[C@@H]1CC2=CC(=O)CC[C@]2(C)[C@H]2CC[C@@]3(C)[C@@H](CC[C@@]34CCC(=O)O4)[C@H]12 [spironolactone, 17-hydroxy-7α-mercapto-3-oxo-17α-pregn-4-ene-21-carboxylic acid γ-lactone acetate]
edema in inner/outer (IS/OS) segments and outer nuclear layer (ONL) (retina [4]; [7]): decreased
vasodilation in the choriocapillaries (retina [4]; [7]): reduced
formation of outer segments (retina [4]; [8]): improves
retinal edema (retina [4]; [8]): efficiently reduces
fluid accumulation in the outer nuclear layer (photoreceptor layer) (retina [4]; [9]): have decreased
thickness of the outer retina (retina [4]; [9]): decreased
ERG b-wave after treatment compared to before treatment (retina [5]): significantly increased

C[C@]12C=CC(=O)C=C1CC[C@H]1[C@@H]3C[C@@H](O)[C@](O)(C(=O)CO)[C@@]3(C)C[C@H](O)[C@@]12F [triamcinolone]
expression of the water channel AQP4 (AQP4 [6]): reduces the expression of AQP4
expression of the water channel AQP4 (AQP4 [6]; listed as triamcinolone acetonide): same effect as a MR antagonist

CCC[C@@H]1CC2=CC(=O)CC[C@]2(C)[C@H]2CC[C@@]3(C)[C@@H](CC[C@@]34CCC(=O)O4)[C@H]12 [RU26752]
aldosterone-induced increase in ENaC-α subunit transcripts in presence of antagonist (ENaC-α): inhibited
aldosterone-induced ENaC protein in presence of MR antagonist (ENaC-α; western blot, retinal explants): not reduced
aldosterone-induced Kir4.1 up-regulation in presence of antagonist (Kir4.1): weaker (or no) effect
aldosterone-induced Kir4.1 protein in presence of MR antagonist (Kir4.1; western blot): reduced
aldosterone induction of AQP4 mRNA in presence of antagonist (AQP4 [1]): fully suppressed
aldosterone-induced AQP4 protein in presence of MR antagonist (AQP4 [1]; western blot): blocked
aldosterone induction of AQP4 mRNA on co-administration of MR antagonist (AQP4 [6]): completely blocks the induction

Reference: patent US9610294B2, “Methods and compositions for the treatment of fluid accumulation in and/or under the retina” (UNIVERSITE PARIS DESCARTES, priority 2010, dated 2017)
